Patent US20220332845A1, “INHIBITION OF MTHFD1L FOR USE IN HYPERTROPHIC HEART DISEASE AND HEART FAILURE” (GENOME BIOLOGICS UG, priority 2019, published 2022)

Legend:
[1] = test system: NRCs; assay: [3H]leucine incorporation assay in NRCs; type: cell-based, rat; settings: T3 15 nM for 6 days, scrLNA or miR27b-5p LNAs
Method: [^3H]leucine incorporation assay was used to measure de novo protein synthesis as an indirect readout for cell growth (Fukuzawa et al. Hypertension 35, 1191-1196 (2000).). 4×10^5 cells were seeded per 3 cm dish. After 3 days, cells were serum-starved overnight. Next day, cells were cultured in leucine-free medium for 4h, followed by culturing in maintenance medium containing labeled […] (specific activity 30-60 Ci/mmol, ART0233, American Radiolabelled Chemicals) at a concentration of 0.5 μCi/mL for 20 h. The next day, cells were washed with PBS, trypsinized and the radioactivity was measured for 5 min in the liquid scintillation analyzer Tri-Carb 2800TR (Perkin Elmer). Cells were counted blinded with a Neubauer chamber after trypsinization and scintillation counts were normalized to absolute cell number.

[2] = test system: NRCs; assay: ADP/ATP ratio in NRCs; type: cell-based, rat; settings: T3 15 nM for 6 days, scrLNA or miR27b-5p LNAs
Method: Mitochondria were isolated using the Mitochondria Isolation Kit for Cultured Cells (Abcam). Briefly, 1.2×10^6 NRCs were seeded per 6 cm dish and cells collected by scraping. After a freeze-thaw step to weaken the cell membrane, the cells were resuspended to a protein concentration of 5 mg/mL in Reagent A and incubated for 10 min on ice. The cells were homogenized with 30 strokes in a Dounce Homogenizer and centrifuged at 1000 g for 10 min at 4° C. The pellet was resuspended in the same volume of Reagent B than was used for Reagent A and rupturing and centrifugation was repeated. The supernatants after the two centrifugation steps were combined and centrifuged at 12000 g for 15 min at 4° C. Pellet was resuspended in 80 μL Reagent C supplemented with protease inhibitors and stored at −80° C. Mitochondrial ADP:ATP quantification was performed as recommended by the manufacturer (Abcam). 4×10^5 NRCs were seeded per well in a 3 cm dish and the assay was performed using the EnzyLight ADP/ATP Ratio Assay Kit (ELDT-100, Bioassay Systems) as recommended by the manufacturer. Luminescence was measured on a FLUOstar Omega plate reader (BMG).

[3] = test system: primary neonatal rat cardiomyocytes (NRC); assay: Immunofluorescent staining of NRCs: multinucleation and cell size; type: cell-based; settings: 10 μM ADP for 3 days
Method: Isolation of primary neonatal rat cardiomyocytes (NRC) was performed using the neonatal heart dissociation kit (130-098-373, Miltenyi Biotec) as recommended by the manufacturer. Isolated cells were pre-plated with plating medium (65% DMEM, 16% M199, 10% fetal calf serum (FCS), 5% horse serum (HS), 2% glutamine and 1% penicillin/streptomycin (P/S)) for 1.5 h to deplete of the fibroblasts. NRC were plated on Type-I Collagen-coated (Advanced Biomatrix) 3 cm dishes (Nunc) in plating medium. The plating medium was changed to maintenance medium (88% DMEM, 9% M199, 1% HS, 2% glutamine and 1% P/S) 24 h after isolation of NRCs. Cardiomyocytes were treated with 3,3′,5-Triiodo-L-thyronine (T3, T5516, Sigma Aldrich) for 6 days at a concentration of 15 nM. NRCs were stimulated with exogenous ADP (A2754, Sigma Aldrich) at a concentration of 10 μM for 3 days. NRC were randomly chosen for treatment the day after isolation.
Immunofluorescent stainings were performed as described previously (Krishnan et al. Cell Metab 9, 512-524 (2009)). After fixation of NRCs with 4% paraformaldehyde (PFA)/PBS, the cells were permeabilized and incubated with primary antibodies against sarcomeric α-actinin (A7811, Sigma Aldrich) and phospho-Histone H3 (Ser10) (05-817, Cell Signaling) diluted in 2% (v/v) HS for 1 h at RT. […] Cell size was quantified blinded using the software Image J (version 1.47).

Structure (SMILES)	hypertrophy ([3H]leucine incorporation) [1]	ADP/ATP [2]	cardiomyocyte hypertrophy by cell size quantification [3]	multinucleation (percentage of multinucleated cells) [3]
N[C@@H](Cc1cc(I)c(Oc2ccc(O)c(I)c2)c(I)c1)C(=O)O [T3, 3,3′,5-Triiodo-L-thyronine]	highly miR27b-dependent hypertrophy	increase	–	–
Nc1ncnc2c1ncn2[C@@H]1O[C@H](COP(=O)(O)OP(=O)(O)O)[C@@H](O)[C@H]1O [ADP]	–	–	cardiomyocyte hypertrophy	sufficiency to induce multinucleation
